Columns and labels:
[1] = In vitro drug release of the ocular drug delivery system in sPLA2 solution (HPLC); format: physicochemical
Procedure: A suitable amount of the ocular drug delivery system obtained in Example 1 was immersed in 1 mL of a sPLA2 solution (containing 0.1 mg/mL sPLA2), followed by incubation at 37° C. with reciprocal shaking (100 rpm) in a thermostatically controlled water bath for a designated time period ranging from 0 minutes to 168 hours. Sample solutions were taken at each time point of 0, 1, 2, 3, 4, 5, 12, 24, 48, 72, 96, 120, 144, and 168 hours. The sample solutions thus obtained were centrifuged at 1000 rpm for 3 minutes. The resultant supernatants were collected and then subjected to high performance liquid chromatography (HPLC) analysis using a L-2400 UV detector, a L-2130 pump (Hitachi, Tokyo, Japan), and a Mightysil RP-18 column (Kanto Chemical, Tokyo, Japan). The HPLC operating conditions applied were described as follows. The mobile phase was 90% water with 0.1% trifluroacetic acid and 10% acetonitrile, and the flow rate of the mobile phase was 1 mL/min. The injection volume was 10 μL. The elution peak was detected by measuring absorbance at 280 nm (for EGCG), 305 nm (for β-1,3 glucan), and 274 nm (for SB-431542), respectively. The amount of EGCG released from the sPLA2 hydrolysable liposomes was calculated with reference to a standard calibration curve of EGCG. Results from five independent measurements were averaged and further used to calculate the cumulative released amount of EGCG.

[2] = In vitro drug release of the ocular drug delivery system in hyaluronidase solution (HPLC); format: physicochemical; conditions: for release rate compared with the other drugs (in words): hyaluronidase solution, EGCG in sPLA2 solution
Procedure: A suitable amount of the ocular drug delivery system obtained in Example 1 was immersed in 1 mL of a sPLA2 solution (containing 0.1 mg/mL sPLA2), followed by incubation at 37° C. with reciprocal shaking (100 rpm) in a thermostatically controlled water bath for a designated time period ranging from 0 minutes to 168 hours. Sample solutions were taken at each time point of 0, 1, 2, 3, 4, 5, 12, 24, 48, 72, 96, 120, 144, and 168 hours.
The sample solutions thus obtained were centrifuged at 1000 rpm for 3 minutes. The resultant supernatants were collected and then subjected to high performance liquid chromatography (HPLC) analysis using a L-2400 UV detector, a L-2130 pump (Hitachi, Tokyo, Japan), and a Mightysil RP-18 column (Kanto Chemical, Tokyo, Japan).
The HPLC operating conditions applied were described as follows. The mobile phase was 90% water with 0.1% trifluroacetic acid and 10% acetonitrile, and the flow rate of the mobile phase was 1 mL/min. The injection volume was 10 μL. The elution peak was detected by measuring absorbance at 280 nm (for EGCG), 305 nm (for β-1,3 glucan), and 274 nm (for SB-431542), respectively.
The release profile of β-1,3-glucan from the first HA-SH nanoparticles and the release profile of SB-431542 from the second HA-SH nanoparticles were evaluated substantially according to the procedures as described above, except that the ocular drug delivery system was immersed in 1 mL of a hyaluronidase solution (containing 100 U/mL hyaluronidase).

[3] = test system: SIRC cells; assay: Cell migration assay of SIRC cells; format: cell-based, rabbit; conditions: cell-free gap about 180 μm, 18 hours
Procedure: (b) Rabbit corneal epithelial (SIRC) cells (BCRC NO: 60093) were obtained from the Bioresources Collection and Research Center (BCRC) of Food Industry Research and Development Institute (FIRDI) (Hsinchu, Taiwan). The SIRC cells were grown in a regular growth medium containing minimum essential medium (MEM) and 10% fetal bovine serum (FBS), and were cultivated in a humidified atmosphere (5% CO2, 37° C.).
A cell culture insert was placed into each well of a 12-well culture plate. The SIRC cells were seeded into the culture tanks on both sides of the culture insert at a cell number of 1×10^4 cells and then incubated overnight to allow cell attachment. Thereafter, the culture insert was removed to create a cell-free gap with a width of about 180 μm, and then the liquid in each well was removed. Each well was washed three times with phosphate-buffered saline (PBS), followed by addition of 200 μL of Eagle's minimum essential medium (MEM). […]
At 0 and 18 hours after incubation, the cell migration profile of the SIRC cells in each group was photographed using an inverted phase contrast microscope (Nikon, Melville, N.Y., USA), and the width of the cell-free gap was measured by ImageJ software. The cell migration rate (%) was calculated using the following Equation (I): Cell migration rate (%)=[A−B)/A]×100 (I) […]

Row | release of EGCG (in words) ([1]; within 8 hours following initiation of the release test, sPLA2 solution) | cumulative release rate of EGCG from the sPLA2 hydrolysable liposomes ([1]; within 20 hours, 0.1 mg/mL sPLA2 solution, 37° C.) [%] | cumulative release rate of SB-431542 from the second HA-SH nanoparticles ([2]; at the 160th hour after initiation of the release test, 100 U/mL hyaluronidase solution, 37° C.) [%] | cumulative release rate of β-1,3 glucan from the first HA-SH nanoparticles ([2]; within 70 hours after initiation of the release test, 100 U/mL hyaluronidase solution, 37° C.) [%] | Compound | release rate compared with the other drugs (in words) [2] | Cell migration rate (%) [3] [%]
1 | released in a large amount | 90 | – | – | O=C(O[C@@H]1Cc2c(O)cc(O)cc2O[C@@H]1c1cc(O)c(O)c(O)c1)c1cc(O)c(O)c(O)c1 [EGCG, epigallocatechin gallate] | – | –
2 | – | – | 80 | – | NC(=O)c1ccc(-c2nc(-c3ccc4c(c3)OCO4)c(-c3ccccn3)[nH]2)cc1 [SB-431542] | slower than those of EGCG and β-1,3 glucan | –
3 | – | – | – | 90 | β-1,3-glucan [β-1,3 glucan] | slower than that of EGCG | 73
